The results in this text go back to paper PMC10574351, “First-Row Transition Metal Complexes Incorporating the 2-(2′-pyridyl)quinoxaline Ligand (pqx), as Potent Inflammatory Mediators: Cytotoxic Properties and Biological Activities against the Platelet-Activating Factor (PAF) and Thrombin” (Molecules, 2023).

Data set [1] relates to human lymphocytes cultures. Nature of the data set: Toxicity in healthy cells (human lymphocytes cultures). The data set is classed as cell-based.
For data set [2], the system named is dithiothreitol-insensitive PAF choline phosphotransferase (PAF-CPT). The data set is described as follows: PAF-CPT activity assay on leukocyte homogenate. The data set is classed as biochemical. Particulars: rabbit leukocyte homogenate; Figure 8. As to the method: (§1) The experiment on the inhibitory effect of each compound of interest against the washed rabbit platelets (WRPs) aggregation was carried out as per the already described method. The platelets were from male New Zealand white rabbits (about 20), individually housed in stainless steel cages in an air-conditioned room (19 ± 1 °C, 55 ± 5% humidity on a 12/12 h artificial light/dark cycle). Blood samples were drawn from the main ear artery. Microliters of PAF in a final concentration of about 10^–10 M were added to the cuvette of the aggregometer, and the height of the platelet aggregation was monitored. […] Dithiothreitol-insensitive PAF choline phosphotransferase, lyso-PAF:acetyl-CoA acetyltransferase and PAF-acetylhydrolase activity assays were performed on the homogenates of rabbit leukocytes while the activity of lipoprotein-associated phospholipase A2 was assessed on plasma as previously described. […] All results were expressed as mean ± standard deviation (SD). […] Data were analyzed using a statistical software package (SPSS for Windows, 16.0, 2007, SPSS Inc., Chicago, IL, USA) and Microsoft Excel 2007. […]

The target in data set [3] is T1, Lipoprotein-associated phospholipase A2 (Lp-PLA2) (Oryctolagus cuniculus, UniProt G1SE06).
T1 construct: from tissue; host or cells: rabbit plasma
T1 sequence (G1SE06 22-423): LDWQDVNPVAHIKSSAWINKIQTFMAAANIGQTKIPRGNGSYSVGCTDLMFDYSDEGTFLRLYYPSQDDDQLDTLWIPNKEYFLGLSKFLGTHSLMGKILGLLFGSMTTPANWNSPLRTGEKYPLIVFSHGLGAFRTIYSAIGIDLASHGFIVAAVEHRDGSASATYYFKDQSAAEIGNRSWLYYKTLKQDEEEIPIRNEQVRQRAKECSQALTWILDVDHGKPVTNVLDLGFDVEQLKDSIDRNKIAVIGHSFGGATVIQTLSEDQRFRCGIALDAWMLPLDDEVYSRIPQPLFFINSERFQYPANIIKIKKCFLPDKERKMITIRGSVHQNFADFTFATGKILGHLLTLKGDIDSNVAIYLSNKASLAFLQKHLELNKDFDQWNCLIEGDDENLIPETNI
The data set is described as follows: Plasma PAF-AH (LpPLA2) activity assay. The data set is classed as biochemical, rabbit. The conditions noted are these: in increased concentrations, Figure 10. As to the method: The experiment on the inhibitory effect of each compound of interest against the washed rabbit platelets (WRPs) aggregation was carried out as per the already described method. The platelets were from male New Zealand white rabbits (about 20), individually housed in stainless steel cages in an air-conditioned room (19 ± 1 °C, 55 ± 5% humidity on a 12/12 h artificial light/dark cycle). Blood samples were drawn from the main ear artery. Microliters of PAF in a final concentration of about 10^–10 M were added to the cuvette of the aggregometer, and the height of the platelet aggregation was monitored. […] Dithiothreitol-insensitive PAF choline phosphotransferase, lyso-PAF:acetyl-CoA acetyltransferase and PAF-acetylhydrolase activity assays were performed on the homogenates of rabbit leukocytes while the activity of lipoprotein-associated phospholipase A2 was assessed on plasma as previously described. […] All results were expressed as mean ± standard deviation (SD). […] Data were analyzed using a statistical software package (SPSS for Windows, 16.0, 2007, SPSS Inc., Chicago, IL, USA) and Microsoft Excel 2007.
Plasma PAF-AH was determined in rabbit plasma by the trichloroacetic acid precipitation method using [3H] […] The [3H]-acetate released into the aqueous phase was measured on a liquid scintillation counter. […]

Data set [4] deals with lyso-PAF:acetyl-CoA acetyltransferase (lyso-PAF-AT). The data set is described as follows: Lyso PAF-AT activity assay on leukocyte homogenate. The data set is classed as biochemical. The conditions noted are these: rabbit leukocyte homogenate; Figure 9. How it is done:
as §1
The extraction, purification, and determination of the produced in each assay PAF was carried out as previously described. […] PAF bands were scrapped off, and extracted and the amount of PAF was determined by the washed rabbit platelet aggregation assay. […]

In the case of `[Cl][Zn][Cl].c1ccc(-c2cnc3ccccc3n2)nc1` [Complex 4, [Zn(pqx)Cl2]], in data set [1], the “toxicity in healthy cells” value is “almost inactive (non-toxic)”.

Turning to [Fe(pqx)Cl2]2 [Complex 6], the “inhibition of the specific activity of PAF-CPT” value in data set [2] was “inhibit, in a dose-dependent way”.

For the molecule [Ni(pqx)Cl2]2 [Complex 7], in data set [3], the “inhibition of the specific activity of Lp-PLA2” value is reported as “disables the enzymatic activity”. Also, the “inhibition of the specific activity of lyso-PAF-AT” value in data set [4] is given as “inhibit in a dose-dependent way”.

As for mer-[Cr(pqx)Cl3(H2O)] [Complex 1], the “toxicity in healthy cells” value in data set [1] is “almost inactive (non-toxic)”. The “inhibition of the specific activity of lyso-PAF-AT” value in data set [4] is reported as “inhibit in a dose-dependent way”.
